{
  "source": "patent US6303568A",
  "about": "“Therapeutic antimicrobial polypeptides, their use and methods for preparation” (Helix Biomedix, Inc., priority 1996, dated 2001)",
  "key": {"[1]": {"settings": "BALB/C mice", "protocol": "The safety of antimicrobial agents according to the present invention was tested according to standard procedures in animal studies.\nSix BALB/C mice, 4 to 5 weeks of age, maintained on commercial rodent ration fed ad libidum and in general good health were each inoculated with 1.76 milligrams/day of cecropin C-37 in balanced salt solution intramuscularly for 4 consecutive days. No other change was made in diet or conditions. […] At the end of the fourth day, three of the […] were humanely destroyed and examined. After 30 days, 3 of the 6 were given an additional 1.76 milligrams each.\nThe remaining mice were all killed 7 days after the last inoculation.\nFollowing the procedure above in Part A, three BALB/C mice were given 110 milligrams/kilogram of body weight of cecropin C-37 injected intramuscularly in balanced salt solution for 6 days. White cell counts and differentials were performed on a daily basis. Ten days after the last inoculation, the mice were again injected intramuscularly with 110 milligrams/kilogram of body weight with Cecropin C-37. […] All three mice were killed 7 days after the final inoculation and tissues were examined."}, "Brucella abortus [2]": {"test_system": "Brucella abortus", "format": "in vivo", "settings": "0.176 milligrams/day intramuscularly for 4 days from 12th day post infection; sacrificed 16th day post infection"}, "Brucella abortus [3]": {"test_system": "Brucella abortus", "format": "cell-based"}, "E. coli E/2/64": {"test_system": "E. coli E/2/64", "test": "In vitro exposure and plate count, E. coli (Example 3)", "format": "cell-based", "protocol": "A known number of viable microorganisms were exposed to a known concentration of the antimicrobial agent for a given time period. Following exposure, the undiluted or diluted microorganisms were plated on solid growth media, e.g., agar plates. The plates were incubated and numbers of organisms determined by making plate counts. Comparisons are then made with the non-treated bacteria for evidence of inhibition, mortality, or both. The following Examples give detailed experimental procedures and results for several microorganisms and antimicrobial agents. […] The E. coli is collected in late log phase growth at which the majority of cells are in growth phase at 18-24 hours. […] The mixtures were incubated at room temperature for 1 hour, and then at 37° C. for 30 minutes. The mixtures were diluted to 10^-1 or 10^-3 with serial dilutions at 7 drops per dilution (10 microliters per drop), plated on agar growth media, which is a tryptose agar. The plates were incubated for 3 days at 37° C. Plate counts were then made and the results given below."}},
  "note": "Where two headings read alike, the source gives them in different places. Ends that are not written are not given here.",
  "data": [
    {"compound": "MPKWKVFKKIEKVGRNIRNGIVKAGPAIAVLGEAKAL-NH2 [Cecropin C-37]", "values": [
      {"measurement": "IgG antibody to the antimicrobial agent", "setting": "[1]; 1.76 milligrams/day intramuscularly", "value": "None of these mice produced detectable levels"},
      {"measurement": "adverse reactions", "setting": "[1]; 1.76 milligrams/day intramuscularly for 4 consecutive days, observed twice daily", "value": "no adverse reactions"},
      {"measurement": "gross pathological changes in organs and at injection sites", "setting": "[1]; 1.76 milligrams/day intramuscularly, killed 7 days after last inoculation", "value": "no gross pathological changes"},
      {"measurement": "Cecropin C-37 antibodies", "setting": "[1]; 110 milligrams/kilogram intramuscularly", "value": "No Cecropin C-37 antibodies were detected"},
      {"measurement": "adverse effects", "setting": "[1]; 110 milligrams/kilogram intramuscularly for 6 days, again ten days after", "value": "no adverse effects"},
      {"measurement": "tissue examination", "setting": "[1]; 110 milligrams/kilogram intramuscularly, killed 7 days after final inoculation", "value": "enlarged spleens but were otherwise unremarkable"},
      {"measurement": "adverse reactions", "setting": "[1]; additional 1.76 milligrams each after 30 days", "value": "No adverse reactions"}
    ]},
    {"compound": "CN(C)[C@@H]1C(O)=C(C(N)=O)C(=O)[C@@]2(O)C(O)=C3C(=O)c4c(O)cccc4[C@@](C)(O)[C@H]3C[C@@H]12", "note": "[Tetracycline, tetracycline]", "values": [
      {"measurement": "Concentration of Brucella abortus in BALB/c Mouse Spleen Tissue After 4 Days Treatment", "setting": "Brucella abortus [2]", "value": "4.4 × 10^3 per gram of spleen"}
    ]},
    {"compound": "KWKVFKKIEKMGRNIRNGIVKAGPAIAVLGEAKAL-NH2 [Cecropin B]", "values": [
      {"measurement": "Effect on Brucella abortus (growth)", "setting": "Brucella abortus [3]", "value": "no growth"},
      {"measurement": "Effect on E. coli (growth)", "setting": "E. coli E/2/64; 5 × 10^-6 molar", "value": "no growth"},
      {"measurement": "Effect on E. coli (growth)", "setting": "E. coli E/2/64; lower concentrations of 1 nanomolar and 1 micromolar", "value": "positive E. coli growth"}
    ]},
    {"compound": "lysozyme: lysozyme, tested by itself and combined with cecropins", "values": [
      {"measurement": "Effect on E. coli (growth)", "setting": "E. coli E/2/64; lysozyme itself at 10 micrograms, 1 milligram, and 10 milligrams per milliliter, 10^-1 and 10^-3 dilutions", "value": "positive growth"}
    ]}
  ]
}
